Key:
Sgx9236b [1] = experiment: direct UV assay of deamination, […] nm; assay type: biochemical, Unknown prokaryotic organism (Sargasso Sea metagenome); conditions: pH 8.5, 30 °C
Sgx9236b [2] = experiment: direct UV assay of deamination, […] nm; assay type: biochemical, Unknown prokaryotic organism (Sargasso Sea metagenome); conditions: pH 8.5, 30 °C; remark: listed apart in the source

Row | Km (Sgx9236b [1]) | Structure (SMILES) | Km (Sgx9236b [2])
1 | 90 ± 30 µM | Nc1nc2ncc(C(=O)O)nc2c(=O)[nH]1 [II, pterin-6-carboxylate] | –
2 | – | Nc1nc2[nH]c(=O)cnc2c(=O)[nH]1 [I, isoxanthopterin] | 50 ± 10 µM
